{"source": "paper PMC9295122", "about": "“Sialic Acid Derivatives Inhibit SiaT Transporters and Delay Bacterial Growth” (ACS Chemical Biology, 2022)", "key": {"[1]": {"biological_target": "T1, PmSiaT (Proteus mirabilis, UniProt B4EZY7)", "T1 construct": "made in house", "T1 sequence (B4EZY7 1-496)": "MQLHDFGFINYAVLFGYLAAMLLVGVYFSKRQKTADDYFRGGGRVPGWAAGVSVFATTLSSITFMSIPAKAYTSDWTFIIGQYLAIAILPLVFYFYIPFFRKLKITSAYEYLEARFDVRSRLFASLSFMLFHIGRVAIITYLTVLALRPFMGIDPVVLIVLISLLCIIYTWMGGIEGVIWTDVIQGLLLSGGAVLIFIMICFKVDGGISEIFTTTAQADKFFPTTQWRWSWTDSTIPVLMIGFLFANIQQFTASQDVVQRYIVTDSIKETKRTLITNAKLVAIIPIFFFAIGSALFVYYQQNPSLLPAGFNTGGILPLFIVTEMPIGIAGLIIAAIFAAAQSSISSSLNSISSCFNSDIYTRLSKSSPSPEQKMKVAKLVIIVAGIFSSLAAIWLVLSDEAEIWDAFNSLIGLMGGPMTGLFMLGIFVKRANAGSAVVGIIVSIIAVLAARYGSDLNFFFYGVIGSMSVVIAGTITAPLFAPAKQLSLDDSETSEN", "test": "nanoDSF thermal shift assay, PmSiaT", "assay_type": "binding", "conditions": "for Average 1 / Average 2 / Average 3 / Replicate 1 / Replicate 2 / Replicate 3: PmSiaT Tm; for Average 1: average of experiment 1; for Average 2: average of experiment 2; for Average 3: average of experiment 3; for Replicate 1: experiment 1, second capillary; for Replicate 1 / Replicate 2 / Replicate 3 / Tm 1 / Tm2 / Tm 3 / Tm average overall / ΔTm at 1250 µM: 1.25 mM; for Replicate 2: experiment 2, second capillary; for Replicate 3: experiment 3, second capillary; for Tm 1: experiment 1, first capillary; for Tm2: experiment 2, first capillary; for Tm 3: experiment 3, first capillary; for Tm average overall / ΔTm at 1250 µM: three experiments; for ΔTm at 1250 µM: vs Neu5Ac, read-out: ΔTm average overall", "summary_of_the_method": "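Protein at 2 μM in PBS with 0.0174% (w/v) DDM and ligand at 1.25 mM were heated from 25 to 95 °C at 1 °C/min, with 330/350 nm fluorescence ratio and its first derivative giving Tm. ΔTm is relative to the Neu5Ac Tm, averaged over 3 experiments with 2 capillaries each.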"}, "[2]": {"biological_target": "T1, PmSiaT", "test": "[3H]Neu5Ac efflux in proteoliposomes, PmSiaT", "assay_type": "biochemical", "conditions": "0.1 mM external compound", "description": "Figure 5 Kinetic analysis of the inhibition of recombinant SiaT from P. mirabilis (A,B) and S. aureus (C,D) reconstituted in proteoliposomes and [^3H]Neu5Ac efflux in proteoliposomes (E,F). (a–d) Data were plotted according to Lineweaver–Burk as a reciprocal transport rate vs reciprocal Neu5Ac concentration. The transport rate was measured, in 5 min, by adding [^3H] Neu5Ac at the indicated concentrations to proteoliposomes containing 20 mM K^+-gluconate in the presence of valinomycin as described in the Supporting Information. [(A,B) P. mirabilis SiaT]; (A) compound 3f 0.25 μM (●) or 0.75 μM (□) was added in comparison to samples without inhibitor (○). (B) Compound 3e 12 μM (●) or 40 μM (□) was added in comparison to samples without an inhibitor (○). [(C,D) S. aureus SiaT]. (C) Compound 3f 80 μM (●) or 200 μM (□) was added in comparison to samples without an inhibitor (○). (D) Compound 3e 5 μM (●) or 12 μM (□) was added in comparison to samples without an inhibitor (○). Results are mean ± s.d. from four independent experiments (n = 4). […] Data are calculated as the percent of residual activity with respect to the control sample (efflux time zero). The results are the means ± s.d. of three independent experiments. […]\nFor uptake experiments, 600 μL of proteoliposomes were loaded onto a Sephadex G-75 column (0.7 cm diameter × 15 cm height), pre-equilibrated with 20 mM Hepes Tris pH 7.0 with 40 mM sucrose to balance the internal osmolarity. […] For kinetic measurement, the initial transport rate was measured by stopping the reaction after 5 min, that is, within the initial linear range of [^3H]-Neu5Ac uptake into the proteoliposomes previously described. […] In both uptake and efflux experiments, the transport assay was terminated by loading each proteoliposome sample (100 μL) on a Sephadex G-75 column (0.6 cm diameter × 8 cm height) to remove the external radioactivity. Proteoliposomes were eluted with 1 mL of 50 mM NaCl and collected in a 4 mL of scintillation mixture, vortexed and counted. […]"}, "[3]": {"conditions": "PmSiaT, experiment 1, vs Neu5Ac, read-out: ΔTm 1"}, "[4]": {"conditions": "PmSiaT, experiment 2, vs Neu5Ac, read-out: ΔTm 2"}, "[5]": {"conditions": "PmSiaT, experiment 3, vs Neu5Ac, read-out: ΔTm 3"}, "[6]": {"conditions": "nanoDSF, relative to Neu5Ac, ligand 1.25 mM, <−2.0 °C nonbinder, read-out: PmSiaT ΔTm"}}, "note": "Read-outs that look alike come from different tables or passages of the source."}
{"smiles": "CC(=O)NC1C(OCc2cc(F)cc(F)c2)CC(O)(C(=O)O)OC1C(O)C(O)CO", "note": "(centres unmarked) [Compound 3e]", "values": [{"measurement": "Average 1", "setting": "[1]", "value": 56.7, "unit": "°C"}, {"measurement": "Average 2", "setting": "[1]", "value": 55.2, "unit": "°C"}, {"measurement": "Average 3", "setting": "[1]", "value": 56.1, "unit": "°C"}, {"measurement": "Replicate 1", "setting": "[1]", "value": 56.8, "unit": "°C"}, {"measurement": "Replicate 2", "setting": "[1]", "value": 55.2, "unit": "°C"}, {"measurement": "Replicate 3", "setting": "[1]", "value": 56.1, "unit": "°C"}, {"measurement": "Tm 1", "setting": "[1]; PmSiaT", "value": 56.7, "unit": "°C"}, {"measurement": "ΔTm", "setting": "[1]; [3]", "value": 7.7, "unit": "°C"}, {"measurement": "Tm2", "setting": "[1]; PmSiaT", "value": 55.2, "unit": "°C"}, {"measurement": "ΔTm", "setting": "[1]; [4]", "value": 6, "unit": "°C"}, {"measurement": "Tm 3", "setting": "[1]; PmSiaT", "value": 56.0, "unit": "°C"}, {"measurement": "ΔTm", "setting": "[1]; [5]", "value": 6.8, "unit": "°C"}, {"measurement": "Tm average overall", "setting": "[1]; PmSiaT", "value": 56.0, "unit": "°C"}, {"measurement": "ΔTm at 1250 µM", "setting": "[1]; PmSiaT", "value": 6.8, "unit": "°C"}, {"measurement": "ΔTm", "setting": "[1]; [6]", "value": "6.8 ± 0.9", "unit": "°C"}, {"measurement": "[3H]Neu5Ac efflux induced", "setting": "[2]", "value": "did not cause any [^3H]Neu5Ac efflux"}]}
{"smiles": "CC(=O)NC1C(OCc2cc(Br)cc(Br)c2)CC(O)(C(=O)O)OC1C(O)C(O)CO", "note": "(centres unmarked) [Compound 3f]", "values": [{"measurement": "Average 2", "setting": "[1]", "value": 62.8, "unit": "°C"}, {"measurement": "Average 3", "setting": "[1]", "value": 63.7, "unit": "°C"}, {"measurement": "Replicate 1", "setting": "[1]", "value": 64.2, "unit": "°C"}, {"measurement": "Replicate 2", "setting": "[1]", "value": 63.0, "unit": "°C"}, {"measurement": "Replicate 3", "setting": "[1]", "value": 63.6, "unit": "°C"}, {"measurement": "Tm 1", "setting": "[1]; PmSiaT", "value": 63.9, "unit": "°C"}, {"measurement": "ΔTm", "setting": "[1]; [3]", "value": 15, "unit": "°C"}, {"measurement": "Tm2", "setting": "[1]; PmSiaT", "value": 62.6, "unit": "°C"}, {"measurement": "ΔTm", "setting": "[1]; [4]", "value": 13.6, "unit": "°C"}, {"measurement": "Tm 3", "setting": "[1]; PmSiaT", "value": 63.8, "unit": "°C"}, {"measurement": "Tm average overall", "setting": "[1]; PmSiaT", "value": 63.5, "unit": "°C"}, {"measurement": "ΔTm", "setting": "[1]; [6]", "value": 14.3, "unit": "°C"}, {"measurement": "[3H]Neu5Ac efflux induced", "setting": "[2]", "value": "did not cause any [^3H]Neu5Ac efflux"}]}
{"smiles": "CC(=O)N[C@H]1[C@H]([C@H](O)[C@H](O)CO)OC(O)(C(=O)O)C[C@@H]1O", "note": "(some centres unmarked) [Neu5Ac, 5-N-acetyl neuraminic acid, reference compound]", "values": [{"measurement": "Average 1", "setting": "[1]", "value": 49.0, "unit": "°C"}, {"measurement": "Average 2", "setting": "[1]", "value": 49.2, "unit": "°C"}, {"measurement": "Average 3", "setting": "[1]", "value": 49.3, "unit": "°C"}, {"measurement": "Replicate 1", "setting": "[1]", "value": 48.8, "unit": "°C"}, {"measurement": "Replicate 2", "setting": "[1]", "value": 49.2, "unit": "°C"}, {"measurement": "Replicate 3", "setting": "[1]", "value": 49.3, "unit": "°C"}, {"measurement": "Tm 1", "setting": "[1]; PmSiaT", "value": 49.2, "unit": "°C"}, {"measurement": "ΔTm", "setting": "[1]; [3]", "value": 0, "unit": "°C"}, {"measurement": "Tm2", "setting": "[1]; PmSiaT", "value": 49.1, "unit": "°C"}, {"measurement": "ΔTm", "setting": "[1]; [4]", "value": 0, "unit": "°C"}, {"measurement": "Tm 3", "setting": "[1]; PmSiaT", "value": 49.3, "unit": "°C"}, {"measurement": "ΔTm", "setting": "[1]; [5]", "value": 0, "unit": "°C"}, {"measurement": "Tm average overall", "setting": "[1]; PmSiaT", "value": 49.1, "unit": "°C"}, {"measurement": "ΔTm at 1250 µM", "setting": "[1]; PmSiaT", "value": 0, "unit": "°C"}, {"measurement": "ΔTm", "setting": "[1]; [6]", "value": 0, "unit": "°C"}, {"measurement": "[3H]Neu5Ac efflux induced", "setting": "[2]", "value": "slow but measurable counter flow"}]}
{"smiles": "CC(=O)NC1C(OCc2ccccc2)CC(O)(C(=O)O)OC1C(O)C(O)CO", "note": "(centres unmarked) [Compound 3a]", "values": [{"measurement": "Average 1", "setting": "[1]", "value": 54.6, "unit": "°C"}, {"measurement": "Average 2", "setting": "[1]", "value": 53.8, "unit": "°C"}, {"measurement": "Average 3", "setting": "[1]", "value": 54.1, "unit": "°C"}, {"measurement": "Replicate 1", "setting": "[1]", "value": 54.6, "unit": "°C"}, {"measurement": "Replicate 2", "setting": "[1]", "value": 53.9, "unit": "°C"}, {"measurement": "Replicate 3", "setting": "[1]", "value": 54.2, "unit": "°C"}, {"measurement": "Tm 1", "setting": "[1]; PmSiaT", "value": 54.5, "unit": "°C"}, {"measurement": "ΔTm", "setting": "[1]; [3]", "value": 5.6, "unit": "°C"}, {"measurement": "Tm2", "setting": "[1]; PmSiaT", "value": 53.7, "unit": "°C"}, {"measurement": "ΔTm", "setting": "[1]; [4]", "value": 4.6, "unit": "°C"}, {"measurement": "Tm 3", "setting": "[1]; PmSiaT", "value": 54.0, "unit": "°C"}, {"measurement": "Tm average overall", "setting": "[1]; PmSiaT", "value": 54.2, "unit": "°C"}, {"measurement": "ΔTm at 1250 µM", "setting": "[1]; PmSiaT", "value": 5, "unit": "°C"}, {"measurement": "ΔTm", "setting": "[1]; [6]", "value": "4.8 ± 0.5", "unit": "°C"}]}
